US20230113775A1, “ANHYDROUS COMPOSITIONS OF EGFR INHIBITORS AND METHODS OF USE” (priority 2021, published 2023)

System: EI patient 3D human skin equivalent (HSE)
Assay: Gene expression analysis, EI patient 3D HSE
Assay type: cell-based
Settings: for CDN4 gene expression / CLDN1 gene expression / DSC1 gene expression / DSG1 gene expression / FLG gene expression / IVL gene expression / KRT10 gene expression / KRT16 gene expression / LOR gene expression / OCLN gene expression / TJP1 gene expression: Control 1.00
Protocol: Non-diseased cells and cells from an EI patient were plated for 3D human skin equivalent (HSE)and treated with the erlotinib at 10 nM or 100 nM from the time of lifting to the air-liquid interface every 72 hours until harvest at day 10. The samples were subjected to gene expression analysis. […] Markers of terminal differentiation such as fillaggrin (FLG) and loricrin (LOR) and markers of cell adhesion such as desmoglein 1 (DSG 1) were also modified.
Gene expression results for EI patient tissue following treatment with erlotinib: […]

[1] = Erlo 10 nM, CMH98.11 EI patient 3D HSE
[2] = Erlo 10 nM, CMH101.11 EI patient 3D HSE
[3] = Erlo 10 nM, CMH102.11 EI patient 3D HSE
[4] = Erlo 100 nM, CMH98.11 EI patient 3D HSE
[5] = Erlo 100 nM, CMH101.11 EI patient 3D HSE
[6] = Erlo 100 nM, CMH102.11 EI patient 3D HSE

In the case of C#Cc1cccc(Nc2ncnc3cc(OCCOC)c(OCCOC)cc23)c1 [erlotinib], the “keratin 10 (KRT10) expression” value (EI derived human keratinocytes in 3D culture, erlotinib 10 nM or 100 nM) is reported as “marked increase”, the CDN4 gene expression [1] is reported as 0.7 and the CLDN1 gene expression [1] is reported as 0.9. For the same compound, the DSC1 gene expression [1] was 0.8, the DSG1 gene expression [1] was 1.8 and the FLG gene expression [1] was 1.2. For the same compound, the IVL gene expression [1] was 1.3, the KRT10 gene expression [1] was 0.9 and the KRT16 gene expression [1] was 1.3. It also gave an LOR gene expression [1] of 1.2, an OCLN gene expression [1] of 0.7 and a TJP1 gene expression [1] of 0.7. The CDN4 gene expression [2] was 0.96, the CLDN1 gene expression [2] was 0.71 and the DSC1 gene expression [2] was 0.65. For the same compound, the DSG1 gene expression [2] was 1.11, the FLG gene expression [2] was 1.08 and the IVL gene expression [2] was 1.04. The KRT10 gene expression [2] was 1.00, the KRT16 gene expression [2] was 1.63 and the LOR gene expression [2] was 1.10. The OCLN gene expression [2] was 0.81, the TJP1 gene expression [2] was 0.55 and the CDN4 gene expression [3] was 1.86. The CLDN1 gene expression [3] was 0.79, the DSC1 gene expression [3] was 0.79 and the DSG1 gene expression [3] was 4.72. It also gave an FLG gene expression [3] of 1.22, an IVL gene expression [3] of 1.58 and a KRT10 gene expression [3] of 2.27. The KRT16 gene expression [3] was 1.31, the LOR gene expression [3] was 0.90 and the OCLN gene expression [3] was 1.15. The TJP1 gene expression [3] was 1.13, the CDN4 gene expression [4] was 1.8 and the CLDN1 gene expression [4] was 1.6. It also gave a DSC1 gene expression [4] of 1.7, a DSG1 gene expression [4] of 1.9 and an FLG gene expression [4] of 1.1. The IVL gene expression [4] was 2.3, the KRT10 gene expression [4] was 1.6 and the KRT16 gene expression [4] was 0.8. It also gave an LOR gene expression [4] of 0.6, an OCLN gene expression [4] of 1.2 and a TJP1 gene expression [4] of 1.2. It also gave a CDN4 gene expression [5] of 0.72, a CLDN1 gene expression [5] of 0.37 and a DSC1 gene expression [5] of 6.09. The DSG1 gene expression [5] was 2.57, the FLG gene expression [5] was 0.72 and the IVL gene expression [5] was 0.83. The KRT10 gene expression [5] was 5.78, the KRT16 gene expression [5] was 0.85 and the LOR gene expression [5] was 0.95. The OCLN gene expression [5] was 0.57, the TJP1 gene expression [5] was 0.57 and the CDN4 gene expression [6] was 3.17. It also gave a CLDN1 gene expression [6] of 2.20, a DSC1 gene expression [6] of 2.20 and a DSG1 gene expression [6] of 6.61. It also gave an FLG gene expression [6] of 2.06, an IVL gene expression [6] of 1.76 and a KRT10 gene expression [6] of 6.44. For the same compound, the KRT16 gene expression [6] was 1.14, the LOR gene expression [6] was 0.79 and the OCLN gene expression [6] was 1.92. For the same compound, the TJP1 gene expression [6] was 1.44.
